According to ChEMBL document CHEMBL5576095, “Research progress of multi-target HDAC inhibitors blocking the BRD4-LIFR-JAK1-STAT3 signaling pathway in the treatment of cancer” (Bioorg Med Chem, 2024):
Blank lines part the entries; values can stand above or below the compound they belong to.

Experiments:
[1] = Inhibition of CD4 (unknown origin)
[2] = target: Histone deacetylase 1 (Homo sapiens, UniProt Q13547); assay: Inhibition of HDAC1 (unknown origin)
[3] = target: Tyrosine-protein kinase JAK1 (Homo sapiens, UniProt P23458); assay: Inhibition of JAK1 (unknown origin)
Tyrosine-protein kinase JAK1, sequence (P23458 whole entry): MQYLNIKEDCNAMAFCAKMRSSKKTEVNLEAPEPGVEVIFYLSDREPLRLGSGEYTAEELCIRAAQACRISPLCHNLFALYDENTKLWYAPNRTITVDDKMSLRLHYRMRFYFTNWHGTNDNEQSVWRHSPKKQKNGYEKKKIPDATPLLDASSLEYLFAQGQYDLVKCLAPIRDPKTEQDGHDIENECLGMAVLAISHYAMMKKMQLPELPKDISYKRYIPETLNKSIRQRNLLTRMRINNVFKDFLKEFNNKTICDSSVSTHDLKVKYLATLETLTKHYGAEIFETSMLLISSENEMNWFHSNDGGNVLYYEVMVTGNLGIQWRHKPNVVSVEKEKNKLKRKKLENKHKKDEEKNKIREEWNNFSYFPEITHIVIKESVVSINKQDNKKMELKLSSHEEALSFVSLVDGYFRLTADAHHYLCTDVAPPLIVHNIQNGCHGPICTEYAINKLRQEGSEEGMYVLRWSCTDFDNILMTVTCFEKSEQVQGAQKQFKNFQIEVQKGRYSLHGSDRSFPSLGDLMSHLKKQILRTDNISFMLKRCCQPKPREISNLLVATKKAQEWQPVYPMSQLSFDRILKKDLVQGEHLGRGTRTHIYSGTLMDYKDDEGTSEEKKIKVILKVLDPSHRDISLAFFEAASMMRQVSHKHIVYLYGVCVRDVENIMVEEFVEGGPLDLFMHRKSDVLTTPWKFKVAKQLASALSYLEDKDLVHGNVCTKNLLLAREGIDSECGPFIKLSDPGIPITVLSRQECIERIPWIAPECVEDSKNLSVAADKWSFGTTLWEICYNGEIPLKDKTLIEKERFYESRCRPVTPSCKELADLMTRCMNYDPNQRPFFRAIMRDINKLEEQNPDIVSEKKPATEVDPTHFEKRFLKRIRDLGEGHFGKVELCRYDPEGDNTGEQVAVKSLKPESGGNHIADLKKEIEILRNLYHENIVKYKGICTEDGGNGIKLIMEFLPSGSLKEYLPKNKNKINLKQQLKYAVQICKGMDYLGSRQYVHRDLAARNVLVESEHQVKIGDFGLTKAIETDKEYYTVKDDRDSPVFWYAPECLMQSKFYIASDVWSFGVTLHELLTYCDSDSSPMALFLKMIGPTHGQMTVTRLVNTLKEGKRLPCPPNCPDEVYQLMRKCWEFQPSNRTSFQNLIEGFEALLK

[4] = system: MV4-11; assay: Antiproliferative activity against human MV4-11 cells assessed as reduction in cell growth; format: functional, cell-based
[5] = system: KATO III stomach cancer cell line; assay: cells; conditions: Homo sapiens
Description: Antiproliferative activity against human KATO III stomach cancer cell line

Histone deacetylase 1, sequence (Q13547 whole entry): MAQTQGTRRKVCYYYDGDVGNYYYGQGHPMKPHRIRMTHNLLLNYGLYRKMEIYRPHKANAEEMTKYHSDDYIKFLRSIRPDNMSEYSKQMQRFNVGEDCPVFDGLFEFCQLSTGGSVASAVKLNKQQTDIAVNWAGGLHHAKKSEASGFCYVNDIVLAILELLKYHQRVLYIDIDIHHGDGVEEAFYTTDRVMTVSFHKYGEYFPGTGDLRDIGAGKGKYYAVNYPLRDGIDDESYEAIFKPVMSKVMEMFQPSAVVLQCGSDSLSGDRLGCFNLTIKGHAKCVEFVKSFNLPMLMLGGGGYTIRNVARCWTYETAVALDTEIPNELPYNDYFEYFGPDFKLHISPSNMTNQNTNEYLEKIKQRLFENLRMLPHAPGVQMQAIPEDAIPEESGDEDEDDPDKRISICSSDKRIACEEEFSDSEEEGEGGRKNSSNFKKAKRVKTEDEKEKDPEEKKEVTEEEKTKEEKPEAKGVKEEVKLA

IC50 [1]: 1.2 nM | IC50 [2]: 26 nM | IC50 [3]: 22 nM
Compound: CCn1c(C)nc2c(F)cc(-c3nc(Nc4ccc(CNC(=O)CCCCCCC(=O)NO)cc4)ncc3F)cc21

IC50 [4]: 40 nM
Compound: CCNC(=O)c1cc2c(-c3cc(C(C)(C)O)ccc3Oc3c(C)cc(F)cc3C)cn(C)c(=O)c2[nH]1 [ABBV-744]

Compound: COc1cc(OC)cc(N(CCNC(C)C)c2ccc3ncc(-c4cnn(C)c4)nc3c2)c1 [ERDAFITINIB]
IC50 [5]: 4 nM
